Laboratory results: US11458138B2 (Novartis AG, priority 2017, dated 2022)

What was measured:
[1] = target: LATS1 (Homo sapiens (Human), UniProt O95835); assay: LATS1 biochemical assay (Table 1A, Compound Examples 1-290; method in the earlier part)
[2] = test system: Phospho-YAP (SER127) in HaCaT cells; assay: pYAP HTRF Assay (HaCaT Cells); format: cell-based, human; conditions: Homo sapiens, 2 hours
Procedure: The pYAP HTRF assay was performed using the Phospho-YAP (SER127) 10000 test kit (CisBio, catalogue number 64YAPPEH) according to manufacturer's instructions. Briefly, HaCaT cells were suspended at 1.1×10^6 cells/mL in DMEM (no phenol red)+10% FBS with penicillin-streptomycin-glutamine. 5 μL of cells were dispensed into 1536 well white solid bottom, tissue culture treated plates (5500 cells/well), and incubated for 48 hours at 37° C. 50 nL test compound was transferred into the assay plates containing HaCaT cells using Pintool (GNF) and incubated for 2 hours. […] The plates were incubated overnight (20 hrs) at room temperature covered with metal lids. Plates were read on Pherastar (BMG Labtech) for HTRF (665 nm/620 nm).

[3] = test system: YAP nuclear translocation in HaCaT cells; assay: YAP Translocation Assay (HaCaT Cells); format: cell-based, human; conditions: Homo sapiens, 24 hours
Procedure: HaCaT cells were suspended at 0.4×10^6 cells/ml in DMEM+10% FBS with penicillin-streptomycin-glutamine. 50 μl of cells were dispensed into 384-well clear bottom assay plates (20,000 cells/well), and incubated overnight at 37° C. 100 nL test compound was transferred into the assay wells containing HaCaT cells using ECHO (Labcyte). After 24 hours incubation at 37° C., 7 μL of 32% PFA was dispensed into each well and incubated for 45 minutes at room temperature. Plates were washed 3 times with PBS, leaving 20 μL of PBS per well, then treated with 0.1% Triton and 1.5% BSA in PBS for 45 minutes at room temperature. Plates were washed for 5 times with PBS, leaving 20 μL of PBS per well. […] Plates were further washed 3 time with PBS, sealed and imaged on the high-content Opera imaging system (PerkinElmer).

Chain of LATS1 (O95835 whole entry, looked up): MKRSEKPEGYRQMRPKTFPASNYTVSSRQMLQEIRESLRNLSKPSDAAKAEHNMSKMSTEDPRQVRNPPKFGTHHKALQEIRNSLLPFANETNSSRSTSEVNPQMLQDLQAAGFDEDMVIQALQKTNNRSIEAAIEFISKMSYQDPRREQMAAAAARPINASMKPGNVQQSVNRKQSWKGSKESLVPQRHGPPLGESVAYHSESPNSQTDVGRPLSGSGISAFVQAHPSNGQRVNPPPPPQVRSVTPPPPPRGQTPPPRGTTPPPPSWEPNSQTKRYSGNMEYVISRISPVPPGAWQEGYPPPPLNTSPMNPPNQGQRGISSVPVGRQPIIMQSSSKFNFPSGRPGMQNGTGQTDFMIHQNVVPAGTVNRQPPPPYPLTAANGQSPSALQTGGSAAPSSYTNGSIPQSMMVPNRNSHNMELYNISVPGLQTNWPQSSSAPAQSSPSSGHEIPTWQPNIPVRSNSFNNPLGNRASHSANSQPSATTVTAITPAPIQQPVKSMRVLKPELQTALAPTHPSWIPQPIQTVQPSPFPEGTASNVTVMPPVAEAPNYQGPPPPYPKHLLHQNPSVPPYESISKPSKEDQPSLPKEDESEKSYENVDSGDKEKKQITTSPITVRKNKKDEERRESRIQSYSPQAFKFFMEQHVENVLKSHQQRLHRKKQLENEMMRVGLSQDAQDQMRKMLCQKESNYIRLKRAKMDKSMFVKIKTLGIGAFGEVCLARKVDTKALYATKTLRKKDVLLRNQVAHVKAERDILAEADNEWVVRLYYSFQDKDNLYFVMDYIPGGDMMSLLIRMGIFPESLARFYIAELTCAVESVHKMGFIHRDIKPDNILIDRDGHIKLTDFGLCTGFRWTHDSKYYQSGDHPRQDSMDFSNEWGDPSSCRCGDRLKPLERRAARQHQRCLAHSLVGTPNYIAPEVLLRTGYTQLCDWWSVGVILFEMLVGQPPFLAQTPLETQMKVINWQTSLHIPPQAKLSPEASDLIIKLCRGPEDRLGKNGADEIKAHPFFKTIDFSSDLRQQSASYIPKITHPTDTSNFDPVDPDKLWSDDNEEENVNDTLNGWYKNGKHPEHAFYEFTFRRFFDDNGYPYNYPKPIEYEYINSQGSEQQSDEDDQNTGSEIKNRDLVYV
Chain of LATS1 (Q7L9L4 whole entry partner, looked up): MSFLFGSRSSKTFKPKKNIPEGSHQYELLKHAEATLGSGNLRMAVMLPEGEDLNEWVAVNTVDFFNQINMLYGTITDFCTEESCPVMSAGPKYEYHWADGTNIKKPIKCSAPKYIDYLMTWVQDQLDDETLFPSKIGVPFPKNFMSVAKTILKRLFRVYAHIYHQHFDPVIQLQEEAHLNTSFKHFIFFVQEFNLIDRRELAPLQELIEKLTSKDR

Row | SMILES | IC50 [1] [nM] | IC50 [2] [µM] | EC50 [3] [µM]
1 | CC1(Nc2nc(-c3c[nH]nn3)nc3cnccc23)CC1 [Example 180, N-(1-methylcyclopropyl)-2-(1H-1,2,3-triazol-4-yl)pyrido[3,4-d]pyrimidin-4-amine] | 322 | > 10 | > 20
2 | FC(F)(F)C(Cc1ccccc1)Nc1nc(-c2ccncc2)nc2cnccc12 (centres unmarked) [Example 38, 2-(pyridin-4-yl)-N-(1,1,1-trifluoro-3-phenylpropan-2-yl)pyrido[3,4-d]pyrimidin-4-amine] | 240 | > 10 | > 20
3 | COC1CC(Nc2nc(-c3ccncc3)nc3cnccc23)C1 (centres unmarked) [Example 52, N-(3-methoxycyclobutyl)-2-(pyridin-4-yl)pyrido[3,4-d]pyrimidin-4-amine] | 12 | 11.3 | > 20
4 | CCCCCNc1nc(-c2ccncc2)nc2cnccc12 [Example 77, N-pentyl-2-(pyridin-4-yl)pyrido[3,4-d]pyrimidin-4-amine] | 9 | > 100 | 13.4
5 | CC1(Nc2nc(-c3ccncc3)nc3cnccc23)COC1 [Example 16, N-(3-methyloxetan-3-yl)-2-(pyridin-4-yl)pyrido[3,4-d]pyrimidin-4-amine] | 5 | 9.79 | 15.8
6 | CC(C)(CN1CCOCC1)Nc1cc(-c2ccncc2F)nc2cnccc12 [Example 284, 2-(3-fluoropyridin-4-yl)-N-[2-methyl-1-(morpholin-4-yl)propan-2-yl]-1,7-naphthyridin-4-amine] | 30 | 46.5 | > 41.2
7 | CC(C)(C)Nc1nc(-c2ccncc2)nc2cncc(NCCOCCO)c12 [Example 253] | 85 | 16.7 | > 20
8 | Cc1n[nH]cc1-c1nc(NC(C)(C)C(F)(F)F)c2ccncc2n1 [Example 135, 2-(3-methyl-1H-pyrazol-4-yl)-N-(1,1,1-trifluoro-2-methylpropan-2-yl)pyrido[3,4-d]pyrimidin-4-amine] | 2 | 0.488 | 0.85
9 | CCCNc1nc(-n2ccc3ncccc32)nc2cnccc12 [Example 156, N-propyl-2-{1H-pyrrolo[3,2-b]pyridin-1-yl}pyrido[3,4-d]pyrimidin-4-amine] | 6 | > 100 | 90.1
10 | CC(C)(CO)Nc1cc(-c2ccncc2F)nc2cnccc12 [Example 282, 2-{[2-(3-fluoropyridin-4-yl)-1,7-naphthyridin-4-yl]amino}-2-methylpropan-1-ol] | 10 | 8.27 | 11.3
11 | CC(O)C(C)Nc1nc(-c2ccncc2)nc2cnccc12 (centres unmarked) [Example 24, 3-{[2-(pyridin-4-yl)pyrido[3,4-d]pyrimidin-4-yl]amino}butan-2-ol] | 17 | 34.7 | 33.1
12 | CC(C)(Nc1nc(-c2c[nH]nc2C(F)(F)F)nc2cnccc12)C(F)(F)F [Example 145, N-(1,1,1-trifluoro-2-methylpropan-2-yl)-2-[3-(trifluoromethyl)-1H-pyrazol-4-yl]pyrido[3,4-d]pyrimidin-4-amine] | 12 | > 100 | 9.31
13 | OCC1(Nc2nc(-c3cn[nH]c3)nc3cnccc23)CC1 [Example 192, (1-{[2-(1H-pyrazol-4-yl)pyrido[3,4-d]pyrimidin-4-yl]amino}cyclopropyl)methanol] | 201 | > 10 | > 20
14 | NCCCCCCNc1nc(-c2ccncc2)nc2cnccc12 [Example 105, N-(6-aminohexyl)-2-(pyridin-4-yl)pyrido[3,4-d]pyrimidin-4-amine] | 1 | 19.9 | > 20
15 | CC(C)(COC(C)(C)C)Nc1nc(-c2ccncc2)nc2cnccc12 [Example 75, N-[1-(tert-butoxy)-2-methylpropan-2-yl]-2-(pyridin-4-yl)pyrido[3,4-d]pyrimidin-4-amine] | 8 | 3.8 | 6.91
16 | O=C(O)CC(Nc1nc(-c2ccncc2)nc2cnccc12)C(F)(F)F (centres unmarked) [Example 44, 4,4,4-trifluoro-3-{[2-(pyridin-4-yl)pyrido[3,4-d]pyrimidin-4-yl]amino}butanoic acid] | > 2500 | > 10 | > 20
17 | COCC(C)(C)Nc1nc(-c2ccncc2Cl)nc2cnccc12 [Example 124, 2-(3-chloropyridin-4-yl)-N-(1-methoxy-2-methylpropan-2-yl)pyrido[3,4-d]pyrimidin-4-amine] | 22 | 8.01 | 12

Row | SMILES | IC50 [1] [nM] | IC50 [2] [µM] | EC50 [3] [µM]
18 | CCCNc1nc(-c2c[nH]c3ncncc23)nc2cnccc12 [Example 161, 4 N-propyl-2-{7H-pyrrolo[2,3-d]pyrimidin-5-yl}pyrido[3,4-d]pyrimidin-4-amine] | 25 | > 100 | > 20
19 | OCC(CC(F)(F)F)Nc1nc(-c2ccncc2)nc2cnccc12 (centres unmarked) [Example 76, 4,4,4-trifluoro-2-{[2-(pyridin-4-yl)pyrido[3,4-d]pyrimidin-4-yl]amino}butan-1-ol] | 9 | 6.42 | 9.41
20 | c1cc(-c2nc(NC3CC3)c3ccncc3n2)ccn1 [Example 21, N-cyclopropyl-2-(pyridin-4-yl)pyrido[3,4-d]pyrimidin-4-amine] | 7 | 19.2 | 8.81
21 | CC[C@H](C)Nc1nc(-c2ccncc2)nc2cnccc12 (single isomer, unassigned) [Example 68a] | 1 | 1.43 | 1.68
22 | O[C@@H]1CCC[C@@H]1Nc1nc(-c2ccncc2)nc2cnccc12 [Example 26, (1R,2S)-2-{[2-(pyridin-4-yl)pyrido[3,4-d]pyrimidin-4-yl]amino}cyclopentan-1-ol] | 31 | 54.6 | > 100
23 | CC1(Nc2nc(-c3ccncc3C#N)nc3cnccc23)CC1 [Example 141, 4-{4-[(1-methylcyclopropyl)amino]pyrido[3,4-d]pyrimidin-2-yl}pyridine-3-carbonitrile] | 4 | 13.6 | > 10
24 | CNc1nc(-c2ccncc2)nc2cnccc12 [Example 86, N-methyl-2-(pyridin-4-yl)pyrido[3,4-d]pyrimidin-4-amine] | 26 | 56 | > 20
25 | CC1(Nc2nc(-c3ccncn3)nc3cnccc23)CC1 [Example 159, N-(1-methylcyclopropyl)-2-(pyrimidin-4-yl)pyrido[3,4-d]pyrimidin-4-amine] | 16 | > 10 | > 20
26 | Cc1n[nH]c(C)c1-c1nc(NC(C)(C)CC(C)(C)O)c2ccncc2n1 [Example 160, 4-{[2-(3,5-dimethyl-1H-pyrazol-4-yl)pyrido[3,4-d]pyrimidin-4-yl]amino}-2,4-dimethylpentan-2-ol] | 24 | 6.8 | > 20
27 | CC(C)(CC#N)Nc1nc(-c2ccncc2)nc2cnccc12 [Example 104, 3-methyl-3-{[2-(pyridin-4-yl)pyrido[3,4-d]pyrimidin-4-yl]amino}butanenitrile] | 5 | 2.6 | 5.19
28 | CS(=O)(=O)CCNc1nc(-c2ccncc2)nc2cnccc12 [Example 41, N-(2-methanesulfonylethyl)-2-(pyridin-4-yl)pyrido[3,4-d]pyrimidin-4-amine] | 708 | > 10 | > 20
29 | CC(O)C(C)(C)Nc1nc(-c2ccncc2)nc2cnccc12 (centres unmarked) [Example 18, 3-methyl-3-{[2-(pyridin-4-yl)pyrido[3,4-d]pyrimidin-4-yl]amino}butan-2-ol] | 6 | 1.52 | 3.46
30 | CC(C)(Nc1nc(-c2ccncc2)nc2cnccc12)c1ccccc1 [Example 81, N-(2-phenylpropan-2-yl)-2-(pyridin-4-yl)pyrido[3,4-d]pyrimidin-4-amine] | 11 | 42.8 | 17
31 | Cc1[nH]ncc1-c1nc(N[C@H](C)c2ccccc2)c2ccncc2n1 [Example 168, 2-(5-methyl-1H-pyrazol-4-yl)-N-[(1R)-1-phenylethyl]pyrido[3,4-d]pyrimidin-4-amine] | 28 | 26.5 | 11.6
32 | COC(=O)C(C)(C)Nc1nc(-c2ccncc2)nc2cnccc12 [Example 32, Methyl 2-methyl-2-{[2-(pyridin-4-yl)pyrido[3,4-d]pyrimidin-4-yl]amino}propanoate] | 47 | > 10 | > 20
33 | Cc1n[nH]c(C)c1-c1nc(NC(C)(C)C(F)(F)F)c2ccncc2n1 [Example 144, 2-(3,5-dimethyl-1H-pyrazol-4-yl)-N-(1,1,1-trifluoro-2-methylpropan-2-yl)pyrido[3,4-d]pyrimidin-4-amine] |  | 0.606 | 4.44
